Measured values as given in US11964971B2, “Methods and compositions for modulating splicing” (Skyhawk Therapeutics, Inc., priority 2019, dated 2024).

Tests used:
MDR1 (P-gp) = test: MDCK-MDR1 permeability assay, blood-brain-barrier penetration potential; details: dog, MDCK-MDR1, pH 7.4, MDCK-MDR1 Efflux Ratio
MDR1 = test: in vitro; details: dog; for Papp A→B at 120 min, 5 μM: MDCK-MDR1, pH 7.4, MDCK-MDR1: Papp A-B (10^−6, cm/s); for Papp B→A at 120 min, 5 μM: MDCK-MDR1, pH 7.4, MDCK-MDR1: Papp B-A (10^−6, cm/s)
SMN protein = SMN protein assay (MSD) in SMA patient fibroblasts (GM03813); type: cell-based, human
Procedure, shortened: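 SMA patient fibroblasts GM03813 (7000 cells/well) treated 48 h with compounds from 2.5 μM to 0.6 nM. Lysate SMN protein quantified by MSD immunoassay against an SMN standard curve (1 to 19.5 μg/ml) on each plate, giving absolute amounts.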

[1] = system: MDR1-MDCK cell monolayers; details: dog, MDCK-MDR1, 120 min, 5 μM, pH 7.4

Compound: CN(c1cnc(-c2cc(F)c(-c3cnn(C)c3)cc2O)cn1)[C@@H]1CC2N[C@H](C1)CC2(F)F (single isomer, unassigned) [Compound 66E2]
- efflux ratio at 120 min, 5 μM (MDR1 (P-gp)): 1
- Papp A→B at 120 min, 5 μM (MDR1): 22.7 ×10⁻⁶ cm/s
- Papp B→A at 120 min, 5 μM (MDR1): 18.3 ×10⁻⁶ cm/s
- EC50 (SMN protein): 501 to 10000 nM
- MDCK-MDR1: % Recov A-B (%) [1]: 43%
- MDCK-MDR1: % Recov B-A (%) [1]: 55%

Compound: COc1cc(-c2cc(O)c(-c3cnc(N(C)[C@@H]4CC5CC(F)(F)[C@@H](C4)N5)cn3)cc2F)cnn1 (single isomer, unassigned) [Compound 67E1]
- efflux ratio at 120 min, 5 μM (MDR1 (P-gp)): 2
- Papp A→B at 120 min, 5 μM (MDR1): 22.2 ×10⁻⁶ cm/s
- Papp B→A at 120 min, 5 μM (MDR1): 42.5 ×10⁻⁶ cm/s
- EC50 (SMN protein): 501 to 10000 nM
- MDCK-MDR1: % Recov A-B (%) [1]: 62%
- MDCK-MDR1: % Recov B-A (%) [1]: 74%

Compound: COc1cc(-c2cc(O)c(-c3cnc(N(C)[C@@H]4CC5N[C@H](C4)CC5(F)F)cn3)cc2F)cnn1 (single isomer, unassigned) [Compound 67E2]
- efflux ratio at 120 min, 5 μM (MDR1 (P-gp)): 4
- Papp A→B at 120 min, 5 μM (MDR1): 14.3 ×10⁻⁶ cm/s
- Papp B→A at 120 min, 5 μM (MDR1): 55.4 ×10⁻⁶ cm/s
- EC50 (SMN protein): 501 to 10000 nM
- MDCK-MDR1: % Recov A-B (%) [1]: 60%
- MDCK-MDR1: % Recov B-A (%) [1]: 68%

Compound: COc1cc(-c2ccc(-c3cnc(N(C)[C@@H]4CC5N[C@H](C4)CC5(F)F)cn3)c(O)c2)cnn1 (single isomer, unassigned) [Compound 68E1]
- efflux ratio at 120 min, 5 μM (MDR1 (P-gp)): 5
- Papp A→B at 120 min, 5 μM (MDR1): 9.35 ×10⁻⁶ cm/s
- Papp B→A at 120 min, 5 μM (MDR1): 43 ×10⁻⁶ cm/s
- EC50 (SMN protein): 501 to 10000 nM
- MDCK-MDR1: % Recov A-B (%) [1]: 63%
- MDCK-MDR1: % Recov B-A (%) [1]: 86%

Compound: Cc1nc(-c2ccc(-c3cnc(N(C)[C@@H]4CC5CC[C@H](N5)[C@@H]4F)cn3)c(O)c2)no1 (single isomer, unassigned) [Compound 69E1]
- efflux ratio at 120 min, 5 μM (MDR1 (P-gp)): 2
- Papp A→B at 120 min, 5 μM (MDR1): 9.43 ×10⁻⁶ cm/s
- Papp B→A at 120 min, 5 μM (MDR1): 17.9 ×10⁻⁶ cm/s
- EC50 (SMN protein): 501 to 10000 nM
- MDCK-MDR1: % Recov A-B (%) [1]: 49%
- MDCK-MDR1: % Recov B-A (%) [1]: 61%

Compound: Cc1nc(-c2ccc(-c3cnc(N(C)[C@H]4C[C@@H]5CCC(N5)[C@H]4F)cn3)c(O)c2)no1 (single isomer, unassigned) [Compound 69E2]
- efflux ratio at 120 min, 5 μM (MDR1 (P-gp)): 2
- Papp A→B at 120 min, 5 μM (MDR1): 9.26 ×10⁻⁶ cm/s
- Papp B→A at 120 min, 5 μM (MDR1): 20.3 ×10⁻⁶ cm/s
- EC50 (SMN protein): 101 to 500 nM
- MDCK-MDR1: % Recov A-B (%) [1]: 47%
- MDCK-MDR1: % Recov B-A (%) [1]: 62%

Compound: CN(c1cnc(-c2ccc(-c3cnn(C)c3)cc2O)cn1)[C@@H]1CC2COC[C@H](N2)[C@@H]1F (single isomer, unassigned) [Compound 73E1]
- efflux ratio at 120 min, 5 μM (MDR1 (P-gp)): 3
- Papp A→B at 120 min, 5 μM (MDR1): 11.5 ×10⁻⁶ cm/s
- Papp B→A at 120 min, 5 μM (MDR1): 38.1 ×10⁻⁶ cm/s
- EC50 (SMN protein): 101 to 500 nM
- MDCK-MDR1: % Recov A-B (%) [1]: 50%
- MDCK-MDR1: % Recov B-A (%) [1]: 71%

Compound: CN(c1cnc(-c2ccc(-c3cnn(C)c3)cc2O)cn1)[C@H]1C[C@@H]2COCC(N2)[C@H]1F (single isomer, unassigned) [Compound 73E2]
- efflux ratio at 120 min, 5 μM (MDR1 (P-gp)): 5
- Papp A→B at 120 min, 5 μM (MDR1): 9.34 ×10⁻⁶ cm/s
- Papp B→A at 120 min, 5 μM (MDR1): 49.1 ×10⁻⁶ cm/s
- EC50 (SMN protein): 501 to 10000 nM
- MDCK-MDR1: % Recov A-B (%) [1]: 51%
- MDCK-MDR1: % Recov B-A (%) [1]: 74%

Compound: COc1cc(-c2ccc(-c3cnc(N(C)[C@@H]4CC5COC[C@H](N5)[C@@H]4F)cn3)c(O)c2)cnn1 (single isomer, unassigned) [Compound 74E1]
- efflux ratio at 120 min, 5 μM (MDR1 (P-gp)): 24
- Papp A→B at 120 min, 5 μM (MDR1): 1.87 ×10⁻⁶ cm/s
- Papp B→A at 120 min, 5 μM (MDR1): 45.5 ×10⁻⁶ cm/s
- EC50 (SMN protein): 501 to 10000 nM
- MDCK-MDR1: % Recov A-B (%) [1]: 88%
- MDCK-MDR1: % Recov B-A (%) [1]: 98%

Compound: CN(c1cnc(-c2ccc(-c3cc[nH]c(=O)c3)cc2O)cn1)[C@@H]1CC2CC[C@H](N2)[C@@H]1F (single isomer, unassigned) [Compound 76E1]
- efflux ratio at 120 min, 5 μM (MDR1 (P-gp)): 102
- Papp A→B at 120 min, 5 μM (MDR1): 0.29 ×10⁻⁶ cm/s
- Papp B→A at 120 min, 5 μM (MDR1): 30.1 ×10⁻⁶ cm/s
- EC50 (SMN protein): 51 to 100 nM
- MDCK-MDR1: % Recov A-B (%) [1]: 89%
- MDCK-MDR1: % Recov B-A (%) [1]: 75%

Compound: Cc1cc(-c2ccc(-c3cnc(N(C)[C@@H]4CC5CC[C@H](N5)[C@@H]4F)cn3)c(O)c2)cc(=O)[nH]1 (single isomer, unassigned) [Compound 77E1]
- efflux ratio at 120 min, 5 μM (MDR1 (P-gp)): 64
- Papp A→B at 120 min, 5 μM (MDR1): 0.34 ×10⁻⁶ cm/s
- Papp B→A at 120 min, 5 μM (MDR1): 21.9 ×10⁻⁶ cm/s
- EC50 (SMN protein): 501 to 10000 nM
- MDCK-MDR1: % Recov A-B (%) [1]: 64%
- MDCK-MDR1: % Recov B-A (%) [1]: 71%

Compound: Cc1cc(-c2ccc(-c3cnc(N(C)[C@H]4C[C@@H]5CCC(N5)[C@H]4F)cn3)c(O)c2)cc(=O)[nH]1 (single isomer, unassigned) [Compound 77E2]
- efflux ratio at 120 min, 5 μM (MDR1 (P-gp)): 47
- Papp A→B at 120 min, 5 μM (MDR1): 0.32 ×10⁻⁶ cm/s
- Papp B→A at 120 min, 5 μM (MDR1): 14.9 ×10⁻⁶ cm/s
- EC50 (SMN protein): 501 to 10000 nM
- MDCK-MDR1: % Recov A-B (%) [1]: 44%
- MDCK-MDR1: % Recov B-A (%) [1]: 50%

Compound: CN(c1cnc(-c2ccc(C3=CC(=O)NC3)cc2O)cn1)[C@@H]1CC2CC[C@H](N2)[C@@H]1F (single isomer, unassigned) [Compound 78E1]
- efflux ratio at 120 min, 5 μM (MDR1 (P-gp)): 53
- Papp A→B at 120 min, 5 μM (MDR1): 0.77 ×10⁻⁶ cm/s
- Papp B→A at 120 min, 5 μM (MDR1): 41 ×10⁻⁶ cm/s
- EC50 (SMN protein): 501 to 10000 nM
- MDCK-MDR1: % Recov A-B (%) [1]: 81%
- MDCK-MDR1: % Recov B-A (%) [1]: 85%

Compound: CN(c1cnc(-c2ccc(-c3nnco3)cc2O)cn1)[C@@H]1CC2CC[C@H](N2)[C@@H]1F (single isomer, unassigned) [Compound 80E1]
- efflux ratio at 120 min, 5 μM (MDR1 (P-gp)): 4
- Papp A→B at 120 min, 5 μM (MDR1): 5.24 ×10⁻⁶ cm/s
- Papp B→A at 120 min, 5 μM (MDR1): 21.5 ×10⁻⁶ cm/s
- EC50 (SMN protein): 101 to 500 nM
- MDCK-MDR1: % Recov A-B (%) [1]: 63%
- MDCK-MDR1: % Recov B-A (%) [1]: 76%

Compound: CN(c1cnc(-c2ccc(-c3nnco3)cc2O)cn1)[C@H]1C[C@@H]2CCC(N2)[C@H]1F (single isomer, unassigned) [Compound 80E2]
- efflux ratio at 120 min, 5 μM (MDR1 (P-gp)): 4
- Papp A→B at 120 min, 5 μM (MDR1): 8.23 ×10⁻⁶ cm/s
- Papp B→A at 120 min, 5 μM (MDR1): 30.8 ×10⁻⁶ cm/s
- EC50 (SMN protein): 501 to 10000 nM
- MDCK-MDR1: % Recov A-B (%) [1]: 73%
- MDCK-MDR1: % Recov B-A (%) [1]: 80%

Compound: CN(c1cnc(-c2ccc(-c3cc[nH]c(=O)c3)cc2O)cn1)[C@@H]1CC2COC[C@H](N2)[C@@H]1F (single isomer, unassigned) [Compound 82E1]
- efflux ratio at 120 min, 5 μM (MDR1 (P-gp)): 77
- Papp A→B at 120 min, 5 μM (MDR1): 0.51 ×10⁻⁶ cm/s
- Papp B→A at 120 min, 5 μM (MDR1): 39.2 ×10⁻⁶ cm/s
- EC50 (SMN protein): 501 to 10000 nM
- MDCK-MDR1: % Recov A-B (%) [1]: 83%
- MDCK-MDR1: % Recov B-A (%) [1]: 87%

Compound: CN(c1cnc(-c2ccc(-c3cc[nH]c(=O)c3)cc2O)cn1)[C@H]1C[C@@H]2COCC(N2)[C@H]1F (single isomer, unassigned) [Compound 82E2]
- efflux ratio at 120 min, 5 μM (MDR1 (P-gp)): 120
- Papp A→B at 120 min, 5 μM (MDR1): 0.27 ×10⁻⁶ cm/s
- Papp B→A at 120 min, 5 μM (MDR1): 32.2 ×10⁻⁶ cm/s
- EC50 (SMN protein): 501 to 10000 nM
- MDCK-MDR1: % Recov A-B (%) [1]: 45%
- MDCK-MDR1: % Recov B-A (%) [1]: 54%

Compound: CN(c1cnc(-c2ccc(C3=CCOC3)cc2O)cn1)[C@@H]1CC2CC[C@H](N2)[C@@H]1F (single isomer, unassigned) [Compound 84E1]
- efflux ratio at 120 min, 5 μM (MDR1 (P-gp)): 3
- Papp A→B at 120 min, 5 μM (MDR1): 3.01 ×10⁻⁶ cm/s
- Papp B→A at 120 min, 5 μM (MDR1): 7.82 ×10⁻⁶ cm/s
- EC50 (SMN protein): 501 to 10000 nM
- MDCK-MDR1: % Recov A-B (%) [1]: 26%
- MDCK-MDR1: % Recov B-A (%) [1]: 59%

Compound: CN(c1cnc(-c2ccc(C3=CCOC3)cc2O)cn1)[C@H]1C[C@@H]2CCC(N2)[C@H]1F (single isomer, unassigned) [Compound 84E2]
- efflux ratio at 120 min, 5 μM (MDR1 (P-gp)): 3
- Papp A→B at 120 min, 5 μM (MDR1): 4.64 ×10⁻⁶ cm/s
- Papp B→A at 120 min, 5 μM (MDR1): 14.9 ×10⁻⁶ cm/s
- EC50 (SMN protein): 16 to 50 nM
- MDCK-MDR1: % Recov A-B (%) [1]: 28%
- MDCK-MDR1: % Recov B-A (%) [1]: 66%

Compound: C[C@@]12CC[C@@](C)(N1)[C@@H](F)[C@@H](Oc1cnc(-c3ccc(-c4cn[nH]c4)cc3O)cn1)C2 [Compound 2E1, 2-(5-(((1R,2R,35,5S)-2-fluoro-1,5-dimethyl-8-azabicyclo[3.2.1]octan-3-yl)oxy)pyrazin-2-yl)-5-(1H-pyrazol-4-yl)phenol]
- efflux ratio at 120 min, 5 μM (MDR1 (P-gp)): 5
- Papp A→B at 120 min, 5 μM (MDR1): 7.93 ×10⁻⁶ cm/s
- Papp B→A at 120 min, 5 μM (MDR1): 40.7 ×10⁻⁶ cm/s
- EC50 (SMN protein): 501 to 10000 nM
- MDCK-MDR1: % Recov A-B (%) [1]: 71%
- MDCK-MDR1: % Recov B-A (%) [1]: 86%
